In US9809574B2, “Isoindoline or isoquinoline compounds, a process for their preparation and pharmaceutical compositions containing them” (LES LABORATOIRES SERVIER, priority 2013, dated 2017):
Where a name gives a salt, the structure may show the parent alone.

Key:
[1] = tested on: RS4; 11 leukaemia cell line; test: In vitro cytotoxicity, Microculture Tetrazolium Assay (MTT); assay type: cell-based; details: 11 cells exposed for 48 hours
Description: The cytotoxicity studies were carried out on the RS4; 11 leukaemia cell line and on H146 small Cell Lung Carcinoma cell line. The cells are distributed onto microplates and exposed to the test compounds for 48 hours. The cell viability is then quantified by a colorimetric assay, the Microculture Tetrazolium Assay (Cancer Res., 1987, 47, 939-942).

Bcl-2 protein = Bcl-2 protein (histag-Bcl-2, UniProtKB P10415) (Homo sapiens (Human), UniProt P10415); test: Inhibition of Bcl-2 by the fluorescence polarisation technique; assay type: binding; details: fluorescence polarisation test; incubation for 2 hours; read-out: IC50 (nM) Bcl-2 FP
Bcl-2 protein, sequence (P10415 whole entry): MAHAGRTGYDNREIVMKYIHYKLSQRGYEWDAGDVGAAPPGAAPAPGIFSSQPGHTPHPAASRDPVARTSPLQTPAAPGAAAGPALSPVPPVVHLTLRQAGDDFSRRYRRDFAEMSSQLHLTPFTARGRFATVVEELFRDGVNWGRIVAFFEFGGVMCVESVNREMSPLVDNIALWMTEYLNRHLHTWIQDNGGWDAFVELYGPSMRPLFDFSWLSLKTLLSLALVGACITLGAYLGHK
From the text: For partial inhibitors, the percentage fluorescence polarisation inhibition for a given concentration of the test compound is indicated.

SMILES	IC50 [1] [nM]	IC50 (Bcl-2 protein) [nM]	IC50 ([1]; Homo sapiens) [nM]
Cc1ccc(OC(=O)N2CCc3cc(-c4cc(C(=O)N(c5ccc(O)cc5)c5cc(C#N)n(C)c5C)c(C)n4C)c(C(=O)N4Cc5ccccc5C[C@H]4CN4CCOCC4)cc3C2)cc1 [Example 805, Tolyl 6-[4-[(5-cyano-1,2-dimethyl-1H-pyrrol-3-yl)-(4-hydroxyphenyl)carbamoyl]-1,5-dimethyl-1H-pyrrol-2-yl]-7-[(3S)-3-(morpholinomethyl)-3,4-dihydro-1H-isoquinoline-2-carbonyl]-3,4-dihydro-1H-isoquinoline-2-carboxylate hydrochloride]	0.12	3.1	
Cc1c(C(=O)N(C)c2ccc(O)cc2)cc(-c2cc3c(cc2C(=O)N2Cc4ccccc4C[C@H]2CN2CCOCC2)CN(C(=O)/C=C/c2ccc(Cl)c(Cl)c2)CC3)n1C [Example 137, 5-{2-[(2E)-3-(3,4-dichlorophenyl)prop-2-enoyl]-7-[(3S)-3-(morpholin-4-ylmethyl)-1,2,3,4-tetrahydroisoquinoline-2-carbonyl]-1,2,3,4-tetrahydroisoquinolin-6-yl}-N-(4-hydroxyphenyl)-N,1,2-trimethyl-1H-pyrrole-3-carboxamide]		9.4	47
CN(C(=O)c1cc(-c2cc3c(cc2C(=O)N2Cc4ccccc4C[C@H]2CN2CCOCC2)CN(C(=O)OC(C)(C)C)CC3)n2c1CCCC2)c1ccc(O)cc1 [Example 1, tert-Butyl 6-{1-[(4-hydroxyphenyl)(methyl)carbamoyl]-5,6,7,8-tetrahydroindolizin-3-yl}-7-[(3S)-3-(morpholin-4-ylmethyl)-1,2,3,4-tetrahydroisoquinoline-2-carbonyl]-1,2,3,4-tetrahydroisoquinoline-2-carboxylate]		13	140
Cc1c(C(=O)N(C)c2ccc(O)cc2)cc(-c2cc3c(cc2C(=O)N2Cc4ccccc4C[C@H]2C)CN(C(=O)Cc2ccc(F)cc2)C3)n1C [Example 102, 5-{2-[2-(4-Fluorophenyl)acetyl]-6-[(3R)-3-methyl-1,2,3,4-tetrahydroisoquinoline-2-carbonyl]-2,3-dihydro-1H-isoindol-5-yl}-N-(4-hydroxyphenyl)-N,1,2-trimethyl-1H-pyrrole-3-carboxamide]		5	75
Cc1c(C(=O)N(C)c2ccc(O)cc2)cc(-c2cc3c(cc2C(=O)N2Cc4ccccc4C[C@H]2CCCN2CCOCC2)CN(C(=O)OC2CCCCC2)CC3)n1C [Example 809, Cyclohexyl 6-{4-[(4-hydroxyphenyl)(methyl)carbamoyl]-1,5-dimethyl-1H-pyrrol-2-yl}-7-[(3R)-3-[3-(morpholin-4-yl)propyl]-1,2,3,4-tetrahydroisoquinoline-2-carbonyl]-1,2,3,4-tetrahydroisoquinoline-2-carboxylate]		3.1	9.8
Cc1c(C(=O)N(C)c2ccccc2)cc(-c2cc3c(cc2C(=O)N2Cc4ccccc4C[C@H]2C)CN(C(=O)Cc2ccc(NCCN(C)C)cc2)CC3)n1C [Example 149, 5-{2-[2-(4-{[2-(Dimethylamino)ethyl]amino}phenyl)acetyl]-7-[(3R)-3-methyl-1,2,3,4-tetrahydroisoquinoline-2-carbonyl]-1,2,3,4-tetrahydroisoquinolin-6-yl}-N,1,2-trimethyl-N-phenyl-1H-pyrrole-3-carboxamide]		11	124
Cc1c(C(=O)N(C)c2ccc(O)cc2)cc(-c2cc3c(cc2C(=O)N2Cc4ccccc4C[C@H]2C)CN(C(=O)OC2CCC(N)CC2)CC3)n1C (stereo partly drawn) [Example 801, (1r,4r)-4-Aminocyclohexyl 6-{4-[(4-hydroxyphenyl)(methyl)carbamoyl]-1,5-dimethyl-1H-pyrrol-2-yl}-7-[(3R)-3-methyl-1,2,3,4-tetrahydroisoquinoline-2-carbonyl]-1,2,3,4-tetrahydroisoquinoline-2-carboxylate hydrochloride]	> 150	2.7	
CN(C(=O)c1cc(-c2cc3c(cc2C(=O)N2Cc4ccccc4C[C@H]2CN2CCOCC2)CN(C(=O)Oc2ccccc2)C3)n2c1CCCC2)c1ccc(O)cc1 [Example 16, Phenyl 5-{1-[(4-hydroxyphenyl)(methyl)carbamoyl]-5,6,7,8-tetrahydroindolizin-3-yl}-6-[(3S)-3-(morpholin-4-ylmethyl)-1,2,3,4-tetrahydroisoquinoline-2-carbonyl]-2,3-dihydro-1H-isoindole-2-carboxylate hydrochloride]		6	27
C[C@@H]1Cc2ccccc2CN1C(=O)c1cc2c(cc1-c1cc(C(=O)N(C)c3ccc(O)cc3)c3n1CCCC3)CCN(C(=O)N1CCC(c3ccccc3)C1)C2 (stereo partly drawn) [Example 67, N-(4-Hydroxyphenyl)-N-methyl-3-{7-[(3R)-3-methyl-1,2,3,4-tetrahydroisoquinoline-2-carbonyl]-2-(3-phenylpyrrolidine-1-carbonyl)-1,2,3,4-tetrahydroisoquinolin-6-yl}-5,6,7,8-tetrahydroindolizine-1-carboxamide]		9.4	51
C[C@H](C(=O)N1CCc2cc(-c3cc(C(=O)N(C)c4ccc(O)cc4)c4n3CCCC4)c(C(=O)N3Cc4ccccc4C[C@H]3C)cc2C1)c1ccccc1 [Example 90, N-(4-Hydroxyphenyl)-N-methyl-3-{7-[(3R)-3-methyl-1,2,3,4-tetrahydroisoquinoline-2-carbonyl]-2-[(2S)-2-phenylpropanoyl]-1,2,3,4-tetrahydroisoquinolin-6-yl}-5,6,7,8-tetrahydroindolizine-1-carboxamide]		6.2	39
Cc1c(C(=O)N(C)c2ccccc2)cc(-c2cc3c(cc2C(=O)N2Cc4ccccc4C[C@H]2CN2CCOCC2)CN(C(=O)Oc2ccc4[nH]ccc4c2)CC3)n1C [Example 631, 1H-Indol-5-yl 6-{1,5-dimethyl-4-[methyl(phenyl)carbamoyl]-1H-pyrrol-2-yl}-7-[(3S)-3-(morpholin-4-ylmethyl)-1,2,3,4-tetrahydroisoquinoline-2-carbonyl]-1,2,3,4-tetrahydroisoquinoline-2-carboxylate]		5.2	8.2
Cc1c(C(=O)N(C)c2ccccc2)cc(-c2cc3c(cc2C(=O)N2Cc4ccccc4C[C@H]2C)CN(C(=O)Oc2ccccc2)CC3)n1C [Example 114, Phenyl 6-{1,5-dimethyl-4-[methyl(phenyl)carbamoyl]-1H-pyrrol-2-yl}-7-[(3R)-3-methyl-1,2,3,4-tetrahydroisoquinoline-2-carbonyl]-1,2,3,4-tetrahydroisoquinoline-2-carboxylate]		3.8	28
Cc1c(C(=O)N(C)c2ccccc2)cc(-c2cc3c(cc2C(=O)N2Cc4ccccc4C[C@H]2C)CN(C(=O)Oc2ccc4[nH]ccc4c2)CC3)n1C [Example 789, 1H-Indol-5-yl 6-{1,5-dimethyl-4-[methyl(phenyl)carbamoyl]-1H-pyrrol-2-yl}-7-[(3R)-3-methyl-1,2,3,4-tetrahydroisoquinoline-2-carbonyl]-1,2,3,4-tetrahydroisoquinoline-2-carboxylate]		8.9	14
Cc1c(C(=O)N(C)c2ccc(O)cc2)cc(-c2cc3c(cc2C(=O)N2Cc4ccccc4C[C@H]2C)CN(C(=O)[C@@H](O)c2ccccc2)C3)n1C [Example 806, N-(4-Hydroxyphenyl)-5-(2-[(2S)-2-hydroxy-2-phenylacetyl]-6-{[(3R)-3-methyl-3,4-dihydroisoquinolin-2(1H)-yl]carbonyl}-2,3-dihydro-1H-isoindol-5-yl)-N,1,2-trimethyl-1H-pyrrole-3-carboxamide]		33	> 150
CCS(=O)(=O)N1CCc2cc(-c3cc(C(=O)N(C)c4ccc(O)cc4)c4n3CCCC4)c(C(=O)N3Cc4ccccc4C[C@H]3C)cc2C1 [Example 56, 3-[2-(Ethanesulfonyl)-7-[(3R)-3-methyl-1,2,3,4-tetrahydroisoquinoline-2-carbonyl]-1,2,3,4-tetrahydroisoquinolin-6-yl]-N-(4-hydroxyphenyl)-N-methyl-5,6,7,8-tetrahydroindolizine-1-carboxamide]		3.8	59
Cc1c(C(=O)N(C)c2ccc(O)cc2)cc(-c2cc3c(cc2C(=O)N2Cc4ccccc4C[C@H]2CCN2CCOCC2)CN(C(=O)Cc2ccccc2)CC3)n1C [Example 779, N-(4-Hydroxyphenyl)-N,1,2-trimethyl-5-{7-[(3S)-3-[2-(morpholin-4-yl)ethyl]-1,2,3,4-tetrahydroisoquinoline-2-carbonyl]-2-(2-phenylacetyl)-1,2,3,4-tetrahydroisoquinolin-6-yl}-1H-pyrrole-3-carboxamide]		2.9	24
Cc1c(C(=O)N(C)c2ccc(O)cc2)cc(-c2cc3c(cc2C(=O)N2Cc4ccccc4C[C@H]2CN2CCOCC2)CN(C(=O)Oc2ccc(C#N)cc2)CC3)n1C [Example 146, 4-Cyanophenyl 6-{4-[(4-hydroxyphenyl)(methyl)carbamoyl]-1,5-dimethyl-1H-pyrrol-2-yl}-7-[(3S)-3-(morpholin-4-ylmethyl)-1,2,3,4-tetrahydroisoquinoline-2-carbonyl]-1,2,3,4-tetrahydroisoquinoline-2-carboxylate]		2.8	6
C[C@@H]1Cc2ccccc2CN1C(=O)c1cc2c(cc1-c1cc(C(=O)N(C)c3ccc(O)cc3)c3n1CCCC3)CN(C(=O)CCc1ccccc1)C2 [Example 15, N-(4-Hydroxyphenyl)-N-methyl-3-{6-[(3R)-3-methyl-1,2,3,4-tetrahydroisoquinoline-2-carbonyl]-2-(3-phenylpropanoyl)-2,3-dihydro-1H-isoindol-5-yl}-5,6,7,8-tetrahydroindolizine-1-carboxamide]		19	93
